Experimental data as given in patent publication US7488712B2, “Histone deacetylase inhibitors and methods for producing the same” (Kyushu Institute of Technology, priority 2002, dated 2009).
*1 amine or outer side, *2 acyl side, *3 side chain or, on linkers, in order; H or OH if unused. Where a SMILES comes first, the peptide text is derived from it. Bridges are numbered along the chain shown (N, C = ends). Roman numbers before positions name the chains, in order. [ ]: non-standard residue; d: D form. hNle(7-SH) = O=C([C@H](CCCCCS[*:3])N[*:1])[*:2]

Key:
[1] = system: human wild-type p21 promoter; assay: p21 promoter-inducing activity (luciferase) in MFLL-9 cells; format: cell-based
Protocol: The HDAC inhibition activity in vivo was measured using p21 promoter-inducing activity as an index, as shown below. The MFLL-9 cells employed for the experiments stably maintained fusion genes of human wild-type p21 promoter and luciferase (Dr. B. Vogelstaein). Using phenol red-free DMEM medium comprising 10% FBS, cultivation was carried out in a steam-saturated incubator at 37° C. with 5% carbon dioxide. The MFLL-9 cells were plated at a density of 85,000 cells/well on a 96-well microtiter plate, each in 99 μl of the above-mentioned medium. These were then cultivated for six hours. One μl of test compound solution was added to each well, which was then cultured for another 18 hours.
The intensity of luminescence caused by the product of the enzyme reaction for intracellular luciferase expression was measured using Luc Lite (Packard BioScience Company). A group in which test compounds were not added was used as a negative control group. The values measured for this group were used as a standard. The activities for each concentration of added test compound were expressed relative to the above-mentioned standard value, 1.

in vitro = details: human, Cancer-Cell-Selective Cytotoxicity
Protocol: (§1) Human normal lung cells (TIG-3) and human uterine cancer cells (HeLa) were used to test SCOP cytotoxicity. These TIG-3 and HeLa cells were cultured in a DMEM medium comprising 10% FBS at 37° C. in the presence of 5% carbon dioxide in a steam-saturated incubator. The TIG-3 and HeLa cells were plated in 100 μl/well of the above-described medium on a 96-well microtiter plate, at a density of 30,000 cells/well and 10,000 cells/well respectively. This was then cultured for 18 hours. Test compound solution diluted with medium was added to each well and culture was continued for another 48 hours.
(§2) 30 μl of supernatant from each well was transferred to another 96-well microtiter plate (A), and the remaining supernatant was discarded. 100 μl of 0.5% Triton-X/PBS was added to each well to lyse the cells, and 30 μl was then transferred to each respective well of another 96-well microtiter plate (B). 30 μl of LDH-Cytotoxic Test (Wako) substrate solution was added to each well of these 96-well microtiter plates A and B, causing a color reaction. Once the color reaction was sufficiently progressed, it was stopped by adding 60 μl of a quenching solution. Color intensity was measured at OD560 nm using a microplate reader (Softmax). [A/(A+B)] was calculated as the free-LDH ratio. […] The higher the activity value for cancer-cell-selective cell damage (LD50 for normal cells/LD50 for cancer cells), the more that cancer-cell-selective apoptosis was induced.

[2] = system: human uterine cancer cells (HeLa); assay: in vitro
Protocol: as §1, §2

human HDAC4 = molecular target: T1, human HDAC4 (Homo sapiens, UniProt P56524); assay: In vitro HDAC inhibition activity, [3H]-acetylated histone substrate, HDAC4; format: biochemical; details: Table 2; homodimer
T1 construct: FLAG; made in house; host or cells: 293T cells (transient transfection, anti-FLAG immunoprecipitation, FLAG peptide elution)
Protocol: (§3) To measure HDAC inhibition activity, an HDAC solution was prepared as described below. 1×10^7 of 293T cells were plated on to a 100-mm dish and, after 24 hours, transfected with vectors (1 μg) expressing human HDAC1 and HDAC4 or mouse HDAC6, using LipofectAmine 2000 reagent (Life Technologies, Inc. Gaithersburg, Md.). […] The vectors were introduced for five hours in OPTI-MEM. The medium was then replaced with Dulbecco's modified Eagle's medium (DMEM), and incubated for 19 hours. The cells were washed with PBS, suspended in lysis buffer (50 mM Tris-HCl (pH7.5), 120 mM NaCl, 5 mM EDTA, and 0.5% Nonidet P-40), and sonicated. The supernatant was collected by centrifugation and nonspecific protein was removed using Protein A/G plus agarose beads (Santa Cruz Biotechnologies, Inc.). Anti-FLAG M2 antibodies (Sigma-Aldrich, Inc.) were added to the supernatant of cells expressing HDAC1 or HDAC4. Anti-HA antibodies (clone 3F10, Roche Molecular Biochemicals) were added to the supernatant of cells expressing HDAC6. Reaction in the respective mixtures was carried out at 4° C. for one hour. The resulting reaction mixtures were independently mixed with agarose beads and further reacted at 4° C. for one hour. The agarose beads were washed three times with lysis buffer and then washed once with HD buffer (20 mM Tris-HCl (pH8.0), 150 mM NaCl, 10% glycerol, and a complete protease inhibitor cocktail (Boehringer Mannheim, Germany)). […] The HDAC reaction solution was used for determining HDAC inhibition activity as shown below.
(§4) In vitro HDAC inhibition activity was evaluated as follows: A test compound was dissolved in DMSO and adjusted to 10 mM. This was used as an inhibitor stock solution. […] These reactions were stopped by adding 10 μl HCl. The [^3H] acetic acid excised by the enzyme reaction was extracted with ethyl acetate and subjected to radioactive dose measurement. As a negative control, the same procedure was carried out in which no inhibitor was added to the reaction system. The inhibition activity was expressed as a 50% inhibition concentration (“IC50 (nM)”) of the HDAC activity in the negative control (Tables 1 to 4).

human HDAC1 = molecular target: T2, human HDAC1 (Homo sapiens, UniProt Q13547); assay: In vitro HDAC inhibition activity, [3H]-acetylated histone substrate, HDAC1; format: biochemical; details: Table 2; homodimer
T2 construct: FLAG; made in house; host or cells: 293T cells (transient transfection, anti-FLAG immunoprecipitation, FLAG peptide elution)
Protocol: as §3, §4

[3] = Stability in serum (FCS), read out by p21 promoter inducing activity; format: in vitro ADME
Protocol: The stability of SCOP 152, SCOP 304, and SCOP 402 in serum was evaluated by the method shown below: 1 μl of 10 mM SCOP 152, SCOP 304, and SCOP 402 was added to 99 μl FCS, and incubated at 37° C. Each hour, NaCl in a sufficient amount for saturation and 1 ml of ethyl acetate were added to each mixture. After extraction, from 800 μl of the ethyl acetate phase, the ethyl acetate was distilled off, and then 100 μl of DMSO was added to the residue. The resulting solution was further diluted ten times with DMSO and used to measure p21 promoter inducing activity. Activity at incubation time zero was taken as 100%, and activities were compared (FIG. 7).

mouse HDAC6 = molecular target: T3, mouse HDAC6 (Mus musculus, UniProt Q9Z2V5); assay: In vitro HDAC inhibition activity, [3H]-acetylated histone substrate, HDAC6; format: biochemical; details: Table 2; homodimer
T3 construct: HA; made in house; host or cells: 293T cells (transient transfection, anti-HA immunoprecipitation, HA peptide elution)
T3 sequence (Q9Z2V5 1-1149): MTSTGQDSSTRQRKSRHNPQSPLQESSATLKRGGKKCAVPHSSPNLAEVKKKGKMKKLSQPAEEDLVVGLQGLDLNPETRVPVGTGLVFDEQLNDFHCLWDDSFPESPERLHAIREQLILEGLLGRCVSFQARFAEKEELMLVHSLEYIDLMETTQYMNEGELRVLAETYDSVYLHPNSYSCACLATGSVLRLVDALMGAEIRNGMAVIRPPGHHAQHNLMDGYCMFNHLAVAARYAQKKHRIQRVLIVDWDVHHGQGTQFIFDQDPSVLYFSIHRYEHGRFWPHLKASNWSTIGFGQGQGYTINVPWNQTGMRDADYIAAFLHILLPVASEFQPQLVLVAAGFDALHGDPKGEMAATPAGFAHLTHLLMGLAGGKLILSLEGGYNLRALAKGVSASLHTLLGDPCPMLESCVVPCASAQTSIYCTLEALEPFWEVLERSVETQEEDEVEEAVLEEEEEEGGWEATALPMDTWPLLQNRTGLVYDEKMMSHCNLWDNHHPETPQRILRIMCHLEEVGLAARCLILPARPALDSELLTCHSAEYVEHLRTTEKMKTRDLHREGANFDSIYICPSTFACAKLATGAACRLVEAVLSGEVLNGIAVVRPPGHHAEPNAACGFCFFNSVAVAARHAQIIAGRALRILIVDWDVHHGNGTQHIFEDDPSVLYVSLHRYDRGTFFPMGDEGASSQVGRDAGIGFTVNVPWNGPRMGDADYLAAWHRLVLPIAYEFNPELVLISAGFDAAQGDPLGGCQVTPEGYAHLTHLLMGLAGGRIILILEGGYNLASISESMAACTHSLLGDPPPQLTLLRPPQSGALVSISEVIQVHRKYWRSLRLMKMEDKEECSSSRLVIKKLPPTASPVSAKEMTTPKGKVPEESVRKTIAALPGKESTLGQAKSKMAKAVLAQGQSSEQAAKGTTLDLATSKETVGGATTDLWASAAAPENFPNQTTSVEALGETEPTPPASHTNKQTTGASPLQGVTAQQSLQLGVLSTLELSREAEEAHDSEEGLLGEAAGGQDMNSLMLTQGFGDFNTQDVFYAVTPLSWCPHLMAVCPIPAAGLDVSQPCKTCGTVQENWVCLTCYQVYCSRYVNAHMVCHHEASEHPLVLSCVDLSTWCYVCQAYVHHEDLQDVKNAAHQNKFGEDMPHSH
Protocol: as §3, §4

[4] = system: Human normal lung cells (TIG-3); assay: Cytotoxicity test (free-LDH ratio), TIG-3; format: cell-based; details: 48 hours; free-LDH ratio 50%; without DTT
Protocol: This was then cultured for 18 hours.

T2 sequence (Q13547 whole entry): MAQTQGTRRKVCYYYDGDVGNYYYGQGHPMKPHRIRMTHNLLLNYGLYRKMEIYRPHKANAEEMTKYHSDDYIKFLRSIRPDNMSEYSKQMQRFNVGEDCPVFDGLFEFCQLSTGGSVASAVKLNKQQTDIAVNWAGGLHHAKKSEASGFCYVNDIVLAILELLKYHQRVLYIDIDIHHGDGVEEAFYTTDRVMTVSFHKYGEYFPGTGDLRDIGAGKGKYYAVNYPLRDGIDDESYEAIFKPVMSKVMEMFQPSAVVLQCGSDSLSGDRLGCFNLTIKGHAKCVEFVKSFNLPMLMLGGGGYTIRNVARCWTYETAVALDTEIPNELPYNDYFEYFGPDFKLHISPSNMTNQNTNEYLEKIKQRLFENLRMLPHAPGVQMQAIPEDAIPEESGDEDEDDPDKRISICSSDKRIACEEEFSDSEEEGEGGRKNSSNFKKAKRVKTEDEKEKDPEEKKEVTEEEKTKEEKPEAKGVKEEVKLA
T1 sequence (O15379 whole entry partner): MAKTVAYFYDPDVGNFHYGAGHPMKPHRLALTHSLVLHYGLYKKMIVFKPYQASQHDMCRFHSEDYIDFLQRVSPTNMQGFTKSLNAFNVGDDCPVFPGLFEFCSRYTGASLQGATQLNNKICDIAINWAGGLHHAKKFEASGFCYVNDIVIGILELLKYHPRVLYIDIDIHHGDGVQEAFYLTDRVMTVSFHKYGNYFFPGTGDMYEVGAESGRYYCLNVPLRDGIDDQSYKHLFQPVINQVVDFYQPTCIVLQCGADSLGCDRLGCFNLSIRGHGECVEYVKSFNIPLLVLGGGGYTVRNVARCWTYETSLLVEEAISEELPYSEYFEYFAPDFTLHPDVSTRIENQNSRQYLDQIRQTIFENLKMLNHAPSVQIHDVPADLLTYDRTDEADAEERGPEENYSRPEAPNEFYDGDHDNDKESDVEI
T1 sequence (P56524 whole entry): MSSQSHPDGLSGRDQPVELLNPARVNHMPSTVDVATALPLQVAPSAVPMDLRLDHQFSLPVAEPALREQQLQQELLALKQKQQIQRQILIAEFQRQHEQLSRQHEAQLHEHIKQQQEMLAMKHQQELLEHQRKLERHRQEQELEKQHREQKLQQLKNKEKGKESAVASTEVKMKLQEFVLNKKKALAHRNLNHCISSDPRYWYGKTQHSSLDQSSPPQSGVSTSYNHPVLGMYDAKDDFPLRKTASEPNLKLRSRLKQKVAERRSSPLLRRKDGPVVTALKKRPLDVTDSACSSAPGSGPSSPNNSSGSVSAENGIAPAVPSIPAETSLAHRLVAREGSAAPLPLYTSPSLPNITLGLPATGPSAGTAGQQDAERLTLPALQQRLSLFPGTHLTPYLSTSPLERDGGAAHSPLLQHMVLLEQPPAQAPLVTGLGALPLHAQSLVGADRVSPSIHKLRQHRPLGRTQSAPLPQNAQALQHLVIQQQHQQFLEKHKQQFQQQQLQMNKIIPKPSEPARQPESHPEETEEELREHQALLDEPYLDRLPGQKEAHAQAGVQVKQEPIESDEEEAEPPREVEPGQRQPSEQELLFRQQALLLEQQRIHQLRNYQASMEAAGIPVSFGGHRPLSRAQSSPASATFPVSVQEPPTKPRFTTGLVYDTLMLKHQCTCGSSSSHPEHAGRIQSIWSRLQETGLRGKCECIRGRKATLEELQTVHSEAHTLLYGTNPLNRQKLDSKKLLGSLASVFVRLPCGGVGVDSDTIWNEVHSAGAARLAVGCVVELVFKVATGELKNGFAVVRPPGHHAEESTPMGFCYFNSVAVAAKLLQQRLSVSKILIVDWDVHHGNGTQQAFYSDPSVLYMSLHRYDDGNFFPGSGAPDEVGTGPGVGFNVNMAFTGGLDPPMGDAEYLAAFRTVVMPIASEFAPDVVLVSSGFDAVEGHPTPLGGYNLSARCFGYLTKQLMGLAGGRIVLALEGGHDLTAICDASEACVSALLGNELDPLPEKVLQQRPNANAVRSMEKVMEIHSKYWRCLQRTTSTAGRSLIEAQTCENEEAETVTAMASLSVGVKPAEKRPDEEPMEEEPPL

Row | Compound | EC50 ([1]; Table 2, homodimer) [nM] | selectivity ratio at 48 h (in vitro) | Cancer-Cell-Selective Cytotoxicity ([2]; human, 48 h) | IC50 (human HDAC4) [nM] | IC50 (human HDAC1) [nM] | Retention of activity in serum [3] | IC50 (mouse HDAC6) [nM] | EC50 ([1]; Table 4, positive control) [nM] | LD50 (nM) TIG-3 [4] [nM] | LD50 (nM) HeLa ([2]; 48 hours, free-LDH ratio 50%, without DTT) [nM]
1 | CC[C@H](C)[C@@H]1NC(=O)[C@@H](Cc2ccc(OC)cc2)NC(=O)[C@H](CCCCCSSCCCCC[C@@H]2NC(=O)[C@H]3CCCN3C(=O)[C@H]([C@@H](C)CC)NC(=O)[C@@H](Cc3ccc(OC)cc3)NC2=O)NC(=O)[C@H]2CCCN2C1=O [SCOP 304, cyclo(-L-Am7(-)-D-Tyr(Me)-L-Ile-D-Pro-)] (I: cyclo([hNle(7-SH)][dY](Me)I[dP]) / II: cyclo([hNle(7-SH)][dY](Me)I[dP]); disulfide I:1-II:1) | 341 | 25.2 | 23.0 | 145 | 142 | stably retain activity in serum for longer than SCOP 152 | > 500000 | – | – | –
2 | CC(/C=C/C(=O)NO)=C\[C@@H](C)C(=O)c1ccc(N(C)C)cc1 [TSA, Tricostatin A, reference compound] | – | – | – | – | – | – | – | 445 | 1580 | 41.4
